Source: patent US4461899A, “Fluorenecarboxylic acid derivatives” (Diamond Shamrock Chemicals Company, priority 1982, dated 1984)

Experiments:
[1] = test system: Kentucky and Merion turfgrass mixture; experiment: Turfgrass growth retardation (height and fresh weight of clippings) after spraying; type: in vivo; conditions: vs control
Description: Two known plant growth regulants were similarly tested. Some grass samples were not treated, only fertilized, as controls. Before treatment, the grass was cut and then fertilized with a 20-20-20 water-soluble fertilizer. Three pots were sprayed per treatment. […] The pots were placed in a plant growth room and were watered daily. The grass was cut at 21, 49 and 84 days after being treated; the blade height and total fresh weight of the clippings were measured.

[2] = test system: field grown tomato plants; experiment: Overall yield and fruit size of field grown tomatoes; type: in vivo; conditions: for Fruit Size, Green (% of Control): control 104.0 g; for Fruit Size, Red (% of Control): control 105.5 g
Text: This example illustrates the effects of compounds of this invention on overall yield of tomatoes. For the test, field grown tomato plants, when in the early flowering stage, were foliage sprayed with the particular compounds of the invention designated below, and with the commercial product CF-125 (Maintain), at rates of 10, 50 and 500 ppm. These rates correspond to applications of 3.69 g, 18.54 g and 185.4 g/hectare, respectively. Each treatment consisted of five plants; the experimental design was a complete randomized block with three replications. A block of untreated plants was included as the control. The fruit was harvested by hand and separated into […] ripe fruit and marketable green fruit.

[3] = test system: "Walter" variety tomato plants; experiment: Yield of "Walter" variety tomatoes, weekly harvest of mature red fruit; type: in vivo; conditions: for Total Fruit / Total Fruit, % of Control: weeks 1-6
Text: Compounds of this invention were further tested as tomato yield enhancers as follows:
"Walter" variety tomato plants, in the early flowering stage, were foliage sprayed at a rate of 68.8 liters/hectare with compounds of this invention, and with the commercial product, CF-125. Each plot consisted of 20 plants; the experimental design was a completed randomized block with three replications. A plot of untreated plants was included as a control. Marketable, mature red tomatoes were harvested weekly, beginning 5 weeks after treatment.

[4] = test system: field grown tomato plants; experiment: Fruit set and phytotoxicity in field grown tomato plants; type: in vivo; conditions: for Increase Over Control (%) of fruit set: 24 days; for Fruit Set Per Plant (After 24 days): 24 days after treatment; for Increase (%) of fruit set: initial to 24 days
Text: To determine fruit set effects by compounds of this invention, field grown tomato plants were foliage sprayed with the cis-2,5-dimethylpyrrolidine salt of […], 9-cis-2,5-dimethyl-1-pyrrolidinyl-2-chlorofluorene-9-carboxylic acid, methyl ester, and the commercial plant growth regulant, MAINTAIN CF-125 (methyl-2-chloro-9hydroxyfluorene-9-carboxylate, manufactured by U.S. Borax and Chemical Corp.). Rates of application employed were 5, 25, and 100 ppm when the tomato plants were in the late blooming to early fruit setting stage. Untreated plants were included in the test as controls. Five plants were sprayed for each chemical treatment. The number of fruit set and the degree of phytotoxicity to the plants were determined 24 days after treatment.

plants being treated = conditions: background; in many instances; cited from earlier work
[5] = 1.12 kilogram/hectare, after 21 days
[6] = 1.12 kilogram/hectare, after 49 days
[7] = 1.12 kilogram/hectare, after 84 days
[8] = 2.24 kilogram/hectare, after 21 days
[9] = 2.24 kilogram/hectare, after 49 days
[10] = 2.24 kilogram/hectare, after 84 days
[11] = 4.48 kilogram/hectare, after 49 days
[12] = 4.48 kilogram/hectare, after 84 days

SMILES: COC(=O)C1(O)c2ccccc2-c2ccc(Cl)cc21 (stereo not shown) [MAINTAIN CF-125, methyl-2-chloro-9-hydroxyfluorene-9-carboxylate]
- % Reduction in Weight [1, 5]: 31%
- Reduction in Height [1, 5]: 36%
- % Reduction in Weight [1, 6]: 0%
- Reduction in Height [1, 6]: 3%
- % Reduction in Weight [1, 7]: 0%
- Reduction in Height [1, 7]: 0%
- % Reduction in Weight [1, 8]: 38%
- Reduction in Height [1, 8]: 42%
- % Reduction in Weight [1, 9]: 0%
- Reduction in Height [1, 9]: 0%
- % Reduction in Weight [1, 10]: 0%
- Reduction in Height [1, 10]: 0%
- Reduction in Height ([1]; 4.48 kilogram/hectare, after 21 days): 50%
- % Reduction in Weight [1, 11]: 4%
- Reduction in Height [1, 11]: 14%
- % Reduction in Weight [1, 12]: 0%
- Reduction in Height [1, 12]: 0%
- % Reduction in Weight ([1]; third dosage column, printed 1.12 kilogram/hectare, after 21 days): 52%
- Fruit Yield, Green (% of Control) ([2]; 10 ppm): 25 % of Control
- Fruit Yield, Red (% of Control) ([2]; 10 ppm): 24 % of Control
- Total Yield (% of Control) ([2]; 10 ppm): 25 % of Control
- Fruit Size, Green (% of Control) ([2]; 10 ppm): 104 % of Control
- Fruit Size, Red (% of Control) ([2]; 10 ppm): 97 % of Control
- Fruit Yield, Green (% of Control) ([2]; 50 ppm): 12 % of Control
- Fruit Yield, Red (% of Control) ([2]; 50 ppm): 122 % of Control
- Total Yield (% of Control) ([2]; 50 ppm): 44 % of Control
- Fruit Size, Green (% of Control) ([2]; 50 ppm): 62 % of Control
- Fruit Size, Red (% of Control) ([2]; 50 ppm): 88 % of Control
- Fruit Yield, Green (% of Control) ([2]; 500 ppm): 3 % of Control
- Fruit Yield, Red (% of Control) ([2]; 500 ppm): 79 % of Control
- Total Yield (% of Control) ([2]; 500 ppm): 29 % of Control
- Fruit Size, Green (% of Control) ([2]; 500 ppm): 54 % of Control
- Fruit Size, Red (% of Control) ([2]; 500 ppm): 108 % of Control
- Fruit Yield (kg/plot) ([3]; 5 ppm): 25.6 kg/plot
- Total Yield Wt. % of Control ([3]; 5 ppm): 108.0 % of Control
- Fruit harvested, Harvest Time (Week) 1 ([3]; 5 ppm): 34
- Fruit harvested, Harvest Time (Week) 2 ([3]; 5 ppm): 206
- Fruit harvested, Harvest Time (Week) 3 ([3]; 5 ppm): 139
- Fruit harvested, Harvest Time (Week) 4 ([3]; 5 ppm): 40
- Fruit harvested, Harvest Time (Week) 5 ([3]; 5 ppm): 29
- Fruit harvested, Harvest Time (Week) 6 ([3]; 5 ppm): 178
- Total Fruit ([3]; 5 ppm): 626
- Total Fruit, % of Control ([3]; 5 ppm): 109 % of Control
- Fruit Yield (kg/plot) ([3]; 10 ppm): 15.3 kg/plot
- Total Yield Wt. % of Control ([3]; 10 ppm): 64.8 % of Control
- Fruit harvested, Harvest Time (Week) 1 ([3]; 10 ppm): 6
- Fruit harvested, Harvest Time (Week) 2 ([3]; 10 ppm): 192
- Fruit harvested, Harvest Time (Week) 3 ([3]; 10 ppm): 92
- Fruit harvested, Harvest Time (Week) 4 ([3]; 10 ppm): 16
- Fruit harvested, Harvest Time (Week) 5 ([3]; 10 ppm): 4
- Fruit harvested, Harvest Time (Week) 6 ([3]; 10 ppm): 69
- Total Fruit ([3]; 10 ppm): 379
- Total Fruit, % of Control ([3]; 10 ppm): 66 % of Control
- Fruit Yield (kg/plot) ([3]; 50 ppm): 2.6 kg/plot
- Total Yield Wt. % of Control ([3]; 50 ppm): 11.0 % of Control
- Fruit harvested, Harvest Time (Week) 1 ([3]; 50 ppm): 15
- Fruit harvested, Harvest Time (Week) 2 ([3]; 50 ppm): 18
- Fruit harvested, Harvest Time (Week) 3 ([3]; 50 ppm): 8
- Fruit harvested, Harvest Time (Week) 4 ([3]; 50 ppm): 0
- Fruit harvested, Harvest Time (Week) 5 ([3]; 50 ppm): 0
- Fruit harvested, Harvest Time (Week) 6 ([3]; 50 ppm): 2
- Total Fruit ([3]; 50 ppm): 43
- Total Fruit, % of Control ([3]; 50 ppm): 7 % of Control
- Increase Over Control (%) of fruit set ([4]; 5 ppm): -35%
- Fruit Set Per Plant (After 24 days) ([4]; 5 ppm): 11.8
- Fruit Set Per Plant (Initial) ([4]; 5 ppm): 7.8
- Increase (%) of fruit set ([4]; 5 ppm): 38%
- Increase Over Control (%) of fruit set ([4]; 25 ppm): -23%
- Fruit Set Per Plant (After 24 days) ([4]; 25 ppm): 12.6
- Fruit Set Per Plant (Initial) ([4]; 25 ppm): 8.4
- Increase (%) of fruit set ([4]; 25 ppm): 50%
- Increase Over Control (%) of fruit set ([4]; 100 ppm): -55%
- Fruit Set Per Plant (After 24 days) ([4]; 100 ppm): 8.0
- Fruit Set Per Plant (Initial) ([4]; 100 ppm): 6.8
- Increase (%) of fruit set ([4]; 100 ppm): 18%
- phytotoxicity, in words (plants being treated): phytotoxic to the plants being treated
